From BindingDB's records for doi:10.1016/0960-894X(95)00078-8 (1995)
Peptide text beside a SMILES is read from it.

Key:
[1] = In vitro ability to displace [125 I]CGRP from Calcitonin gene-related peptide type receptor at 4 degrees Centigrade in rabbit lung
[2] = In vitro ability to displace [125 I]CGRP from Calcitonin gene-related peptide type receptor at 4 degrees Celsius in rabbit porcine c+i

Row | SMILES | IC50 [1] | IC50 [2]
1 | CC(C)C[C@H](NC(=O)COCCOCCNC(=O)[C@@H](NC(=O)[C@H](CS)NC(=O)[C@@H](NC(=O)[C@H](C)NC(=O)[C@@H](NC(=O)[C@H](CC(=O)O)NC(=O)[C@H](CS)NC(=O)[C@H](C)N)[C@@H](C)O)[C@@H](C)O)C(C)C)C(=O)N[C@@H](CO)C(=O)N[C@@H](CCCNC(=N)N)C(=O)N[C@@H](CO)C(=O)NCC(=O)NCC(=O)N[C@H](C(=O)N[C@H](C(=O)N[C@@H](CCCCN)C(=O)N[C@@H](CC(N)=O)C(=O)N[C@@H](CC(N)=O)C(=O)N[C@@H](Cc1ccccc1)C(=O)N[C@H](C(=O)N1CCC[C@H]1C(=O)N[C@H](C(=O)N[C@@H](CC(N)=O)C(=O)N[C@H](C(=O)NCC(=O)N[C@@H](CO)C(=O)N[C@@H](CCCCN)C(=O)N[C@@H](C)C(=O)N[C@@H](Cc1ccccc1)C(=O)O)C(C)C)[C@@H](C)O)C(C)C)C(C)C)C(C)C | 185 nM | 995 nM
2 | CC(C)[C@H](NC(=O)CNC(=O)CNC(=O)[C@H](CO)NC(=O)[C@H](CCCN=C(N)N)NC(=O)[C@@H](NC(=O)[C@H](CCCN=C(N)N)NC(=O)[C@@H](NC(=O)[C@H](Cc1c[nH]cn1)NC(=O)[C@@H](NC(=O)[C@H](CS)NC(=O)[C@@H](NC(=O)[C@H](C)NC(=O)[C@@H](NC(=O)[C@H](CC(=O)O)NC(=O)[C@H](CS)NC(=O)[C@H](C)N)[C@@H](C)O)[C@@H](C)O)C(C)C)C(C)C)C(C)C)C(=O)N[C@H](C(=O)N[C@@H](CCCCN)C(=O)N[C@@H](CC(N)=O)C(=O)N[C@@H](CC(N)=O)C(=O)N[C@@H](Cc1ccccc1)C(=O)N[C@H](C(=O)N1CCC[C@H]1C(=O)N[C@H](C(=O)N[C@@H](CC(N)=O)C(=O)N[C@H](C(=O)NCC(=O)N[C@@H](CO)C(=O)N[C@@H](CCCCN)C(=O)N[C@@H](C)C(=O)N[C@@H](Cc1ccccc1)C(N)=O)C(C)C)[C@@H](C)O)C(C)C)C(C)C (H-ACDTATCVHVRVRSGGVVKNNFVPTNVGSKAF-NH2) | 4 nM | 14 nM
